Results published in PubChem BioAssay (NCI).
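Compound exposure: 48 hours, 5 concentrations, 96-well plates. GI50 = concentration required for 50% inhibition of growth. TGI: concentration producing complete growth inhibition.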

Columns and labels:
Experiment in all cases: growth of human tumour cells (NCI), 48 h
SK-MEL-5 melanoma = system: SK-MEL-5 melanoma
LOX IMVI melanoma = system: LOX IMVI melanoma
NCI-H23 lung = system: NCI-H23 lung
IGROV1 ovarian = system: IGROV1 ovarian
HT29 colon = system: HT29 colon
SNB-19 CNS = system: SNB-19 CNS
MALME-3M melanoma = system: MALME-3M melanoma
T-47D breast = system: T-47D breast
SF-268 CNS = system: SF-268 CNS
A498 renal = system: A498 renal

## CSc1ccc(-c2cc(-c3ccc(NC(=O)CCCN4CCCC4)cc3)nc(-c3ccc(NC(=O)CCCN4CCCC4)cc3)c2)cc1
SK-MEL-5 melanoma
  GI50: 2.74 µM
  TGI: 10.7 µM
LOX IMVI melanoma
  GI50: 2.01 µM
  TGI: 4.18 µM
NCI-H23 lung
  GI50: 1.67 µM
  TGI: 3.16 µM
IGROV1 ovarian
  GI50: 10.3 µM
  TGI: 33.8 µM
HT29 colon
  GI50: 1.71 µM
  TGI: 3.13 µM
SNB-19 CNS
  GI50: 4.92 µM
  TGI: 23.8 µM
MALME-3M melanoma
  GI50: 14 µM
  TGI: 42.7 µM
T-47D breast
  GI50: 6.52 µM
  TGI: 21.7 µM
SF-268 CNS
  GI50: 2.15 µM
  TGI: 5.01 µM

## CN(C)/C=C/c1nnnn1-c1ccc(Cl)cc1
A498 renal
  GI50: 30.5 µM
  TGI: 87.1 µM
SK-MEL-5 melanoma
  GI50: 15 µM
  TGI: 35.4 µM
LOX IMVI melanoma
  GI50: 21.7 µM
  TGI: > 100 µM
NCI-H23 lung
  GI50: 11.8 µM
  TGI: 29.8 µM
IGROV1 ovarian
  GI50: 14 µM
  TGI: > 100 µM
HT29 colon
  GI50: 20.2 µM
  TGI: 45 µM
SNB-19 CNS
  GI50: 29 µM
  TGI: 92.9 µM
MALME-3M melanoma
  GI50: 12.8 µM
  TGI: 38.7 µM
SF-268 CNS
  GI50: 3.01 µM
  TGI: 19.8 µM

## NC(N)=N/N=C/c1c(-c2cccs2)nc2sccn12
A498 renal
  GI50: 4.46 µM
  TGI: 13.6 µM
SK-MEL-5 melanoma
  GI50: 13.6 µM
  TGI: 26.5 µM
LOX IMVI melanoma
  GI50: 14 µM
  TGI: 27 µM
NCI-H23 lung
  GI50: 14.3 µM
  TGI: 29 µM
HT29 colon
  GI50: 13.2 µM
  TGI: 27.1 µM
SNB-19 CNS
  GI50: 14.8 µM
  TGI: 28.6 µM
T-47D breast
  GI50: 14.6 µM
  TGI: 28.6 µM
SF-268 CNS
  GI50: 15.2 µM
  TGI: 29.1 µM

## COc1ccccc1/C=C1\CCC(CNc2ccc(Cl)cc2)C1=O (stereo unspecified)
A498 renal
  TGI: 27 µM
SK-MEL-5 melanoma
  TGI: 18.4 µM
LOX IMVI melanoma
  TGI: 9.22 µM
NCI-H23 lung
  TGI: 20.8 µM
IGROV1 ovarian
  TGI: 22.8 µM
HT29 colon
  TGI: 22.9 µM
SNB-19 CNS
  TGI: 25 µM
MALME-3M melanoma
  TGI: 28.4 µM
SF-268 CNS
  TGI: 24.2 µM

## O=Nc1c(-c2cccc([N+](=O)[O-])c2)nc2cnccn12
SK-MEL-5 melanoma
  TGI: > 100 µM
LOX IMVI melanoma
  TGI: 28.5 µM
NCI-H23 lung
  TGI: 36.1 µM
IGROV1 ovarian
  TGI: 38.6 µM
HT29 colon
  TGI: 40.1 µM
SNB-19 CNS
  TGI: > 100 µM
MALME-3M melanoma
  TGI: 56.5 µM
T-47D breast
  TGI: 49.6 µM
SF-268 CNS
  TGI: 79.4 µM

## O=C1c2ccccc2-c2nccc3cc(Cl)nc1c23
A498 renal
  GI50: 6.21 µM
  TGI: 32.5 µM
SK-MEL-5 melanoma
  GI50: 1.34 µM
  TGI: 2.61 µM
LOX IMVI melanoma
  GI50: 1.13 µM
  TGI: 2.33 µM
NCI-H23 lung
  GI50: 1.12 µM
  TGI: 2.4 µM
IGROV1 ovarian
  GI50: 0.586 µM
  TGI: 1.91 µM
SNB-19 CNS
  GI50: 20.7 µM
  TGI: 74.8 µM
MALME-3M melanoma
  GI50: 0.908 µM
  TGI: 2.42 µM
T-47D breast
  GI50: 0.385 µM
  TGI: 1.72 µM
SF-268 CNS
  GI50: 1.74 µM
  TGI: 4.28 µM

## CCN(CC)CC(=O)/C=C/c1ccc(C)cc1
A498 renal
  TGI: > 100 µM
SK-MEL-5 melanoma
  TGI: 33.1 µM
LOX IMVI melanoma
  TGI: 34.4 µM
NCI-H23 lung
  TGI: > 100 µM
IGROV1 ovarian
  TGI: 40.4 µM
HT29 colon
  TGI: 45.1 µM
SNB-19 CNS
  TGI: > 100 µM
MALME-3M melanoma
  TGI: 41.2 µM
SF-268 CNS
  TGI: 54.8 µM

## CC1=C(SCc2ccccc2)C(=O)c2ccccc2C1=O
A498 renal
  TGI: 62.1 µM
SK-MEL-5 melanoma
  TGI: 31 µM
LOX IMVI melanoma
  TGI: 38.2 µM
NCI-H23 lung
  TGI: 41.8 µM
IGROV1 ovarian
  TGI: 25.3 µM
HT29 colon
  TGI: 90.2 µM
MALME-3M melanoma
  TGI: 29.2 µM
T-47D breast
  TGI: > 100 µM
SF-268 CNS
  TGI: 31.3 µM
